What was measured:
Assay type in all cases: biochemical
[1] = target: CDK2/cyclinE (h) (Homo sapiens, UniProt P24941); experiment: Kinase profiling C3.4 CDK2/cyclinE human; settings: test concentration of 10^−6 M
Procedure, shortened: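 Radiometric filter-binding assay: 5-10 mU enzyme with 0.1 mg/ml histone H1 in 8 mM MOPS pH 7.0, 0.2 mM EDTA, 10 mM Mg acetate and [γ-33P]ATP. Incubated 40 min at room temperature, stopped with phosphoric acid. Substrate-bound 33P counted on P30 filtermat.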

[2] = target: CDK1/cyclinB (h) (Homo sapiens, UniProt P06493); experiment: Kinase profiling C3.2 CDK1/cyclinB human; settings: test concentration of 10^−6 M
Procedure, shortened: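 Radiometric filter-binding assay: human CDK1/cyclinB (5-10 mU) with 0.1 mg/ml histone H1 substrate and [γ-33P]ATP in 8 mM MOPS pH 7.0, 10 mM Mg acetate, 40 min at room temperature. Stopped with phosphoric acid; substrate-bound 33P counted on P30 filtermat by scintillation.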

[3] = target: CDK2/cyclinA (h) (Homo sapiens, UniProt P24941); experiment: Kinase profiling C3.3 CDK2/cyclinA human; settings: test concentration of 10^−6 M
Procedure, shortened: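 Human CDK2/cyclinA (5-10 mU) phosphorylates 0.1 mg/ml histone H1 in 8 mM MOPS pH 7.0, EDTA, 10 mM Mg acetate with [γ-33P]ATP, 40 min at room temperature. After phosphoric acid stop, filter-bound 33P counted by scintillation.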

[4] = target: GSK-3α (Homo sapiens, UniProt P49840); experiment: GSK-3 kinase assay (C1), GSK-3α; settings: 1 μM ATP; for IC50: read-out: C1 Score α
Procedure, shortened: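 Radiometric SPA at room temperature in 25 mM Tris pH 7.4 with 10 mM MgCl2, 1 mM DTT, 5.7 ng/μl GSK-3β or 0.25 ng/μl GSK-3α, 5 μM biotinylated CREB peptide and 1 μM ATP plus ^33P-ATP. Stopped after 1 h; IC50 from dose-response versus no-compound control, reported as pIC50 score bands.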

[5] = target: CDK3/cyclinE (h) (Homo sapiens, UniProt Q00526); experiment: Kinase profiling C3.5 CDK3/cyclinE human; settings: test concentration of 10^−6 M
Procedure, shortened: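 Human CDK3/cyclinE (5-10 mU) phosphorylated 0.1 mg/ml histone H1 in 8 mM MOPS pH 7.0, 0.2 mM EDTA and 10 mM MgAcetate with [γ-33P]ATP. Reaction ran 40 min at room temperature and was stopped with phosphoric acid. Substrate-bound radioactivity was captured on P30 filtermat and measured by scintillation counting.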

[6] = target: CDK7/cyclinH/MAT1 (h) (Homo sapiens, UniProt P50613); experiment: Kinase profiling C3.8 CDK7/cyclinH/MAT1 human; settings: CDK7/cyclinH/MAT1, test concentration of 10^−6 M
Procedure, shortened: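 Human CDK7/cyclinH/MAT1 (5-10 mU) incubated 40 min at room temperature in 8 mM MOPS pH 7.0, 0.2 mM EDTA, 10 mM Mg acetate, 500 μM peptide substrate and [γ-^33P]ATP. Stopped with phosphoric acid; substrate phosphorylation measured by filter binding and scintillation counting.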

CDK7/cyclinH/MAT1 (h), sequence (P50613 whole entry): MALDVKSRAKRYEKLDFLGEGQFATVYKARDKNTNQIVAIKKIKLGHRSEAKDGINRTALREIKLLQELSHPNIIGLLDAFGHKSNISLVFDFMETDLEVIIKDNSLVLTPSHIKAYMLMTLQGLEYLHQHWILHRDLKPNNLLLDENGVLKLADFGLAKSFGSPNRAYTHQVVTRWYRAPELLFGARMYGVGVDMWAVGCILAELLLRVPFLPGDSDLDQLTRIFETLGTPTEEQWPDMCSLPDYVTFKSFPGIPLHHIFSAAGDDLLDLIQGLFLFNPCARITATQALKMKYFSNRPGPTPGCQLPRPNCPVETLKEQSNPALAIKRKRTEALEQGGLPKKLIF
CDK7/cyclinH/MAT1 (h), sequence (P51946 whole entry partner): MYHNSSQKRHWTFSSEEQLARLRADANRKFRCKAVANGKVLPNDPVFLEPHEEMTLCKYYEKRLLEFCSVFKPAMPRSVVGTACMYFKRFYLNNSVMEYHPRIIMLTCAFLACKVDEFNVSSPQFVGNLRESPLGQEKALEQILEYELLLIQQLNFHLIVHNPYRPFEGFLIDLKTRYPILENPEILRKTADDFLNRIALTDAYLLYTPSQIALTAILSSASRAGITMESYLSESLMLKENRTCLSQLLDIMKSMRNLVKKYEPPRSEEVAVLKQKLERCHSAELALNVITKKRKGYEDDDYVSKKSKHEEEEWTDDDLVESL
CDK7/cyclinH/MAT1 (h), sequence (P51948 whole entry partner): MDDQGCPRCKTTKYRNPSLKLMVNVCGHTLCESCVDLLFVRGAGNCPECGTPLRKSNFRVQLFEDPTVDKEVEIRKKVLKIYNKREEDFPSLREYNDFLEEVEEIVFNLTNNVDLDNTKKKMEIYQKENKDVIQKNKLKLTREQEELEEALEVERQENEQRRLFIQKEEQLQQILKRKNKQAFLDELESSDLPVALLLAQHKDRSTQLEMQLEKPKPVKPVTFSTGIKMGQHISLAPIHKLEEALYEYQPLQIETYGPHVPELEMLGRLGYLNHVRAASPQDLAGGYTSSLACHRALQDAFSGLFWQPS
GSK-3α, sequence (P49840 whole entry, species assumed): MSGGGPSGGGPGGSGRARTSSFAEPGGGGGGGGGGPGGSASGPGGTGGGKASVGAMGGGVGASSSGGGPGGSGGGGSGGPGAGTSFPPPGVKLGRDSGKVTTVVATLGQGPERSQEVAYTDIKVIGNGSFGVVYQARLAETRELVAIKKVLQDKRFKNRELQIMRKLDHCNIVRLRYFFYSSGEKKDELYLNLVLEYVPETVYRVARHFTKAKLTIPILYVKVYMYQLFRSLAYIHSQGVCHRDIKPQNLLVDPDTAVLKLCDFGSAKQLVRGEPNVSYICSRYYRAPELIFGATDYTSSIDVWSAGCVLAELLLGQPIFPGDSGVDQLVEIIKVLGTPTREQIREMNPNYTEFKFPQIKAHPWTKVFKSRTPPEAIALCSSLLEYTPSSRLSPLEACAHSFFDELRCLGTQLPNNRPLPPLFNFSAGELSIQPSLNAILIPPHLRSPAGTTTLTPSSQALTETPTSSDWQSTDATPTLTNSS
CDK1/cyclinB (h), sequence (P06493 whole entry): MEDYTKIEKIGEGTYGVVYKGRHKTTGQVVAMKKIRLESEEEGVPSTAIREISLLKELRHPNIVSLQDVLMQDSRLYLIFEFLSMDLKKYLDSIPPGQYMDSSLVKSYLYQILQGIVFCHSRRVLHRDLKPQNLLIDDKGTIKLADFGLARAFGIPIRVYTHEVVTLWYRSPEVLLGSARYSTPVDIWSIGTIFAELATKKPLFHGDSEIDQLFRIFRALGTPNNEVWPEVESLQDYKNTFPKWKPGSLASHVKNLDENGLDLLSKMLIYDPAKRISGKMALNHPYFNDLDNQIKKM
CDK1/cyclinB (h), sequence (P14635 whole entry partner): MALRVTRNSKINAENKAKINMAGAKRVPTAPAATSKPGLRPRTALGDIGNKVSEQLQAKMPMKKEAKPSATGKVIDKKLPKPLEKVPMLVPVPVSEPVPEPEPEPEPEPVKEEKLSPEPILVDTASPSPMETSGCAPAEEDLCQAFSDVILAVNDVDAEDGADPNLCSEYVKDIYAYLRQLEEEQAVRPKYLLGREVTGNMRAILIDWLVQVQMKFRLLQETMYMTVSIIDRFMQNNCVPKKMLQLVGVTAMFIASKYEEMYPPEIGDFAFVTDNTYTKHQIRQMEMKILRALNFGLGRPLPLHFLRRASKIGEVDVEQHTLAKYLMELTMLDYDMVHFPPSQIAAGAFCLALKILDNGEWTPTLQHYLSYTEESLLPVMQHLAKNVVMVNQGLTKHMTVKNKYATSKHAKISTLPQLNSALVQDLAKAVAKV

Structure (SMILES)	C3.4 score [1]	C3.2 score [2]	C3.3 score [3]	IC50 [4] [nM]	C3.5 score [5]	C3.8 score [6]	C1 Score α [4]
CN1CCN(CCN2CCC(=O)NCCCc3cc(ccn3)-c3ncnc(n3)Nc3cccc(c3)C2)CC1 [Compound 11]	1 (Score 1 = 10-30% inhibition)	1 (Score 1 = 10-30% inhibition)	1 (Score 1 = 10-30% inhibition)	100 to 1000	1 (Score 1 = 10-30% inhibition)	1 (Score 1 = 10-30% inhibition)	
CN1CC(=O)NCCCc2cc(ccn2)-c2ncnc(n2)Nc2cccc(c2)C1 [Compound 8]	4 (Score 4 = >80% inhibition)	4 (Score 4 = >80% inhibition)	4 (Score 4 = >80% inhibition)		4 (Score 4 = >80% inhibition)	2 (Score 2 = 30-60% inhibition)	4 (Score 4=pIC50 value>8)
CN1CC(=O)NC/C(Cl)=C/c2cc(ccn2)-c2ncnc(n2)Nc2cccc(c2)C1 [Compound 2]	4 (Score 4 = >80% inhibition)	4 (Score 4 = >80% inhibition)	4 (Score 4 = >80% inhibition)	< 10	4 (Score 4 = >80% inhibition)	3 (Score 3 = 60-80% inhibition)	
CN1CC(=O)NCCCc2cc(ccn2)-c2ncnc(n2)Nc2cccc(c2)C1 [Compound 10]	4 (Score 4 = >80% inhibition)	4 (Score 4 = >80% inhibition)	4 (Score 4 = >80% inhibition)	< 10	4 (Score 4 = >80% inhibition)	4 (Score 4 = >80% inhibition)	
CCN1CCCc2cc(ccn2)-c2ncnc(n2)Nc2cccc(c2)CCNC(=O)C1 [Compound 30]	4 (Score 4 = >80% inhibition)	4 (Score 4 = >80% inhibition)	4 (Score 4 = >80% inhibition)	< 10	4 (Score 4 = >80% inhibition)	3 (Score 3 = 60-80% inhibition)	
O=C1CN2CCN(CC2)Cc2cccc(c2)Nc2ncnc(n2)-c2ccc(F)c(c2)CCCN1 [Compound 66]	4 (Score 4 = >80% inhibition)	4 (Score 4 = >80% inhibition)	3 (Score 3 = 60-80% inhibition)	< 10	3 (Score 3 = 60-80% inhibition)	1 (Score 1 = 10-30% inhibition)	
CCN1CC(=O)NCCCc2cc(ccn2)-c2ncnc(n2)Nc2cc(Cl)cc(c2)C1 [Compound 34]	4 (Score 4 = >80% inhibition)	4 (Score 4 = >80% inhibition)	4 (Score 4 = >80% inhibition)	< 10	4 (Score 4 = >80% inhibition)	2 (Score 2 = 30-60% inhibition)	
O=C1NCCCc2cc(ccn2)-c2ncnc(n2)Nc2cccc(c2)CN2CCCC1C2 (stereo not drawn) [Compound 15]	2 (Score 2 = 30-60% inhibition)	1 (Score 1 = 10-30% inhibition)	2 (Score 2 = 30-60% inhibition)	10 to 100	1 (Score 1 = 10-30% inhibition)	2 (Score 2 = 30-60% inhibition)	
CN1CCCC(=O)NCCCc2cc(ccn2)-c2ncnc(n2)Nc2cccc(c2)C1 [Compound 13]	2 (Score 2 = 30-60% inhibition)	1 (Score 1 = 10-30% inhibition)	2 (Score 2 = 30-60% inhibition)	100 to 1000	2 (Score 2 = 30-60% inhibition)	2 (Score 2 = 30-60% inhibition)	
O=C1NCCCc2cccc(c2)-c2ncnc(n2)Nc2cccc(c2)CN[C@H]1CO [Compound 46]	4 (Score 4 = >80% inhibition)	4 (Score 4 = >80% inhibition)	4 (Score 4 = >80% inhibition)	< 10	4 (Score 4 = >80% inhibition)	1 (Score 1 = 10-30% inhibition)	
O=C1CCN2CCN(CC2)Cc2cccc(c2)Nc2ncnc(n2)-c2ccnc(c2)CCCN1 [Compound 35]	4 (Score 4 = >80% inhibition)	4 (Score 4 = >80% inhibition)	4 (Score 4 = >80% inhibition)	10 to 100	4 (Score 4 = >80% inhibition)	4 (Score 4 = >80% inhibition)	
CN1CCCc2cc(ccn2)-c2ncnc(n2)Nc2cccc(c2)CNC(=O)C1 [Compound 7]	4 (Score 4 = >80% inhibition)	4 (Score 4 = >80% inhibition)	4 (Score 4 = >80% inhibition)	< 10	4 (Score 4 = >80% inhibition)	2 (Score 2 = 30-60% inhibition)	
O=C1NCCCc2cc(ccn2)-c2ncnc(n2)Nc2cccc(c2)CN2CCCC12 (stereo not drawn) [Compound 12]	4 (Score 4 = >80% inhibition)	3 (Score 3 = 60-80% inhibition)	4 (Score 4 = >80% inhibition)	100 to 1000	3 (Score 3 = 60-80% inhibition)	3 (Score 3 = 60-80% inhibition)	
O=C1NCCCc2cc(ccn2)-c2ncnc(n2)Nc2cccc(c2)CN2C[C@H](O)C[C@@H]12 [Compound 14]	1 (Score 1 = 10-30% inhibition)	2 (Score 2 = 30-60% inhibition)	4 (Score 4 = >80% inhibition)	10 to 100	2 (Score 2 = 30-60% inhibition)	2 (Score 2 = 30-60% inhibition)	
CN1CCC(=O)NCCCc2cc(ccn2)-c2ncnc(n2)Nc2cccc(c2)C1 [Compound 3]	4 (Score 4 = >80% inhibition)	4 (Score 4 = >80% inhibition)	4 (Score 4 = >80% inhibition)	100 to 1000	3 (Score 3 = 60-80% inhibition)	4 (Score 4 = >80% inhibition)	
O=C1NCCCc2cc(ccc2F)-c2ncnc(n2)Nc2cc(Cl)cc(c2)CN[C@H]1CO [Compound 71]	4 (Score 4 = >80% inhibition)	4 (Score 4 = >80% inhibition)	2 (Score 2 = 30-60% inhibition)	< 10	4 (Score 4 = >80% inhibition)	4 (Score 4 = >80% inhibition)	
O=C1CN2CCN(CC2)Cc2cccc(c2)Nc2ncnc(n2)-c2ccnc(c2)CCCN1 [Compound 36]	4 (Score 4 = >80% inhibition)	4 (Score 4 = >80% inhibition)	4 (Score 4 = >80% inhibition)	< 10	3 (Score 3 = 60-80% inhibition)	2 (Score 2 = 30-60% inhibition)	
CN1CC(=O)NCC#Cc2cc(ccn2)-c2ncnc(n2)Nc2cccc(c2)C1 [Compound 1]	4 (Score 4 = >80% inhibition)	4 (Score 4 = >80% inhibition)	4 (Score 4 = >80% inhibition)	< 10	4 (Score 4 = >80% inhibition)	4 (Score 4 = >80% inhibition)	
